Assay results reported in ChEMBL document CHEMBL1201862, “PubChem BioAssay data set” (2004).
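Results reflect a 48-hour exposure of cells in 96-well plates to compound at five concentrations. Here, GI50 denotes the concentration required for 50% inhibition of growth.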 Active and inactive are the calls of the source. No stated cut-off is given here; in the data, active = GI50 up to about 1.1 µM and inactive = higher.

Key:
Assay in all cases: NCI anticancer screen, dose series, 48 h
786-0 = tested on: 786-0
A549 = tested on: A549
ACHN = tested on: ACHN
BT-549 = tested on: BT-549
CAKI-1 = tested on: CAKI-1
CCRF-CEM = tested on: CCRF-CEM
COLO 205 = tested on: COLO 205
DU-145 = tested on: DU-145
EKVX = tested on: EKVX
HCC 2998 = tested on: HCC 2998
HCT-15 = tested on: HCT-15
HL-60 = tested on: HL-60
HOP-62 = tested on: HOP-62
HOP-92 = tested on: HOP-92
HT-29 = tested on: HT-29
Hs-578T = tested on: Hs-578T
IGROV-1 = tested on: IGROV-1
K562 = tested on: K562
KM12 = tested on: KM12
LOX IMVI = tested on: LOX IMVI
M14 = tested on: M14
MCF7 = tested on: MCF7
MDA-MB-231 = tested on: MDA-MB-231
MDA-MB-435 = tested on: MDA-MB-435
MOLT-4 = tested on: MOLT-4
Malme-3M = tested on: Malme-3M
NCI-H226 = tested on: NCI-H226
NCI-H23 = tested on: NCI-H23
NCI-H460 = tested on: NCI-H460
NCI-H522 = tested on: NCI-H522
NCI/ADR-RES = tested on: NCI/ADR-RES
OVCAR-3 = tested on: OVCAR-3
OVCAR-4 = tested on: OVCAR-4
OVCAR-5 = tested on: OVCAR-5
OVCAR-8 = tested on: OVCAR-8
PC-3 = tested on: PC-3
SF-268 = tested on: SF-268
SF-295 = tested on: SF-295
SF-539 = tested on: SF-539
SK-MEL-28 = tested on: SK-MEL-28
SK-MEL-5 = tested on: SK-MEL-5
SK-OV-3 = tested on: SK-OV-3
SN12C = tested on: SN12C
SNB-19 = tested on: SNB-19
SR = tested on: SR
SW-620 = tested on: SW-620
T47D = tested on: T47D
TK-10 = tested on: TK-10
U-251 = tested on: U-251
UACC-257 = tested on: UACC-257
UACC-62 = tested on: UACC-62
UO-31 = tested on: UO-31
HCT-116 = tested on: HCT-116
RPMI-8226 = tested on: RPMI-8226
RXF 393 = tested on: RXF 393
SK-MEL-2 = tested on: SK-MEL-2
SNB-75 = tested on: SNB-75
A498 = tested on: A498

With CCOC(=O)c1cn(C)nc1N/C(C)=C\C(=O)c1ccccc1 the GI50 (786-0) was > 100 µM (inactive), the GI50 (A549) was > 100 µM (inactive) and the GI50 (ACHN) was > 100 µM (inactive). The GI50 (BT-549) was > 100 µM (inactive), the GI50 (CAKI-1) was > 100 µM (inactive) and the GI50 (CCRF-CEM) was > 100 µM (inactive). The GI50 (COLO 205) was > 100 µM (inactive), the GI50 (DU-145) was > 100 µM (inactive) and the GI50 (EKVX) was > 100 µM (inactive). The GI50 (HCC 2998) was > 100 µM (inactive), the GI50 (HCT-15) was > 100 µM and the GI50 (HL-60) was > 100 µM (inactive). The GI50 (HOP-62) was 33 µM (inactive), the GI50 (HOP-92) was > 100 µM (inactive) and the GI50 (HT-29) was 60.1 µM (inactive). For the same molecule, the GI50 (Hs-578T) was > 100 µM (inactive), the GI50 (IGROV-1) was > 100 µM (inactive) and the GI50 (K562) was > 100 µM (inactive). The GI50 (KM12) was > 100 µM (inactive), the GI50 (LOX IMVI) was 90.8 µM (inactive) and the GI50 (M14) was > 100 µM (inactive). The GI50 (MCF7) was > 100 µM (inactive), the GI50 (MDA-MB-231) was 20.9 µM (inactive) and the GI50 (MDA-MB-435) was > 100 µM (inactive). For the same molecule, the GI50 (MOLT-4) was > 100 µM (inactive), the GI50 (Malme-3M) was > 100 µM (inactive) and the GI50 (NCI-H226) was 91.4 µM (inactive). The GI50 (NCI-H23) was > 100 µM (inactive), the GI50 (NCI-H460) was > 100 µM (inactive) and the GI50 (NCI-H522) was > 100 µM (inactive). The GI50 (NCI/ADR-RES) was > 100 µM (inactive), the GI50 (OVCAR-3) was > 100 µM (inactive) and the GI50 (OVCAR-4) was > 100 µM (inactive). For the same molecule, the GI50 (OVCAR-5) was > 100 µM (inactive), the GI50 (OVCAR-8) was > 100 µM (inactive) and the GI50 (PC-3) was > 100 µM (inactive). The GI50 (SF-268) was > 100 µM (inactive), the GI50 (SF-295) was > 100 µM (inactive) and the GI50 (SF-539) was 83.2 µM (inactive). For the same molecule, the GI50 (SK-MEL-28) was > 100 µM (inactive), the GI50 (SK-MEL-5) was > 100 µM (inactive) and the GI50 (SK-OV-3) was > 100 µM (inactive). For the same molecule, the GI50 (SN12C) was > 100 µM (inactive), the GI50 (SNB-19) was > 100 µM (inactive) and the GI50 (SR) was > 100 µM (inactive). The GI50 (SW-620) was > 100 µM (inactive), the GI50 (T47D) was > 100 µM (inactive) and the GI50 (TK-10) was > 100 µM (inactive). The GI50 (U-251) was > 100 µM (inactive), the GI50 (UACC-257) was > 100 µM (inactive) and the GI50 (UACC-62) was > 100 µM (inactive). For the same molecule, the GI50 (UO-31) was > 100 µM (inactive).

With COc1ccc(CNc2nc(NCc3ccc(OC)c(OC)c3)nc(NC3CCCCC3)n2)cc1 the GI50 (786-0) was 5.64 µM (inactive), the GI50 (A549) was 5.46 µM (inactive) and the GI50 (ACHN) was 7.94 µM (inactive). For the same molecule, the GI50 (BT-549) was 4.57 µM (inactive), the GI50 (CAKI-1) was 3.17 µM (inactive) and the GI50 (CCRF-CEM) was 3.66 µM (inactive). The GI50 (COLO 205) was 2.34 µM (inactive), the GI50 (DU-145) was 3.4 µM (inactive) and the GI50 (EKVX) was 10.4 µM (inactive). For the same molecule, the GI50 (HCT-116) was 2.69 µM (inactive), the GI50 (HCT-15) was 0.731 µM and the GI50 (HL-60) was 2.77 µM (inactive). For the same molecule, the GI50 (HOP-92) was > 100 µM (inactive), the GI50 (HT-29) was 2.88 µM (inactive) and the GI50 (Hs-578T) was 2.49 µM (inactive). For the same molecule, the GI50 (IGROV-1) was 4.49 µM (inactive), the GI50 (K562) was 1.24 µM (inactive) and the GI50 (KM12) was 1.21 µM (inactive). The GI50 (LOX IMVI) was 5.33 µM (inactive), the GI50 (M14) was 4.61 µM (inactive) and the GI50 (MCF7) was 1.29 µM (inactive). The GI50 (MDA-MB-231) was 5.13 µM (inactive), the GI50 (MDA-MB-435) was 0.531 µM (active) and the GI50 (MOLT-4) was 5.22 µM (inactive). For the same molecule, the GI50 (Malme-3M) was 37.2 µM (inactive), the GI50 (NCI-H226) was 6.55 µM (inactive) and the GI50 (NCI-H23) was 2.86 µM (inactive). For the same molecule, the GI50 (NCI-H460) was 2.8 µM (inactive), the GI50 (NCI-H522) was 1.69 µM (inactive) and the GI50 (NCI/ADR-RES) was 2.55 µM (inactive). The GI50 (OVCAR-3) was 5.38 µM (inactive), the GI50 (OVCAR-4) was 9.06 µM (inactive) and the GI50 (OVCAR-5) was 4.88 µM (inactive). For the same molecule, the GI50 (OVCAR-8) was 7.41 µM (inactive), the GI50 (PC-3) was 3.77 µM (inactive) and the GI50 (RPMI-8226) was 3.6 µM (inactive). The GI50 (RXF 393) was 2.23 µM (inactive), the GI50 (SF-295) was 2.04 µM (inactive) and the GI50 (SF-539) was 2.29 µM (inactive). The GI50 (SK-MEL-28) was > 100 µM (inactive), the GI50 (SK-MEL-2) was 4.26 µM (inactive) and the GI50 (SK-MEL-5) was 0.716 µM (active). The GI50 (SK-OV-3) was > 100 µM (inactive), the GI50 (SN12C) was 6.18 µM (inactive) and the GI50 (SNB-19) was > 100 µM (inactive). The GI50 (SNB-75) was 3.38 µM (inactive), the GI50 (SR) was 0.611 µM (active) and the GI50 (SW-620) was 2.89 µM (inactive). For the same molecule, the GI50 (T47D) was 4.48 µM (inactive), the GI50 (TK-10) was 18.5 µM (inactive) and the GI50 (U-251) was 3.44 µM (inactive). The GI50 (UACC-257) was > 100 µM (inactive), the GI50 (UACC-62) was 2.3 µM (inactive) and the GI50 (UO-31) was 5.18 µM (inactive).

O=C(O)c1cc(CC2Cc3cc4c(cc3C2=O)CCC4)cc2c1CCC2 (stereo unspecified) was tested, and the GI50 (786-0) was > 100 µM (inactive), the GI50 (A498) was > 100 µM (inactive) and the GI50 (A549) was > 100 µM (inactive). For the same molecule, the GI50 (ACHN) was 61 µM (inactive), the GI50 (BT-549) was > 100 µM (inactive) and the GI50 (CAKI-1) was > 100 µM (inactive). For the same molecule, the GI50 (CCRF-CEM) was 59.3 µM (inactive), the GI50 (COLO 205) was > 100 µM (inactive) and the GI50 (DU-145) was > 100 µM (inactive). For the same molecule, the GI50 (EKVX) was > 100 µM (inactive), the GI50 (HCC 2998) was > 100 µM (inactive) and the GI50 (HCT-116) was 72.1 µM (inactive). For the same molecule, the GI50 (HCT-15) was 60.7 µM, the GI50 (HL-60) was > 100 µM (inactive) and the GI50 (HOP-62) was > 100 µM (inactive). The GI50 (HT-29) was > 100 µM (inactive), the GI50 (Hs-578T) was 48.1 µM (inactive) and the GI50 (IGROV-1) was > 100 µM (inactive). For the same molecule, the GI50 (K562) was 40.9 µM (inactive), the GI50 (KM12) was 75.2 µM (inactive) and the GI50 (LOX IMVI) was 84.1 µM (inactive). The GI50 (M14) was > 100 µM (inactive), the GI50 (MCF7) was > 100 µM (inactive) and the GI50 (MDA-MB-231) was 76.4 µM (inactive). For the same molecule, the GI50 (MDA-MB-435) was > 100 µM (inactive), the GI50 (MOLT-4) was > 100 µM (inactive) and the GI50 (Malme-3M) was > 100 µM (inactive). For the same molecule, the GI50 (NCI-H226) was > 100 µM (inactive), the GI50 (NCI-H23) was > 100 µM (inactive) and the GI50 (NCI-H460) was > 100 µM (inactive). For the same molecule, the GI50 (NCI-H522) was 90.2 µM (inactive), the GI50 (NCI/ADR-RES) was > 100 µM (inactive) and the GI50 (OVCAR-3) was 94.4 µM (inactive). The GI50 (OVCAR-4) was > 100 µM (inactive), the GI50 (OVCAR-5) was > 100 µM (inactive) and the GI50 (OVCAR-8) was > 100 µM (inactive). For the same molecule, the GI50 (PC-3) was 46.6 µM (inactive), the GI50 (RPMI-8226) was 70.8 µM (inactive) and the GI50 (SF-268) was > 100 µM (inactive). For the same molecule, the GI50 (SF-295) was > 100 µM (inactive), the GI50 (SF-539) was > 100 µM (inactive) and the GI50 (SK-MEL-28) was > 100 µM (inactive). The GI50 (SK-MEL-2) was > 100 µM (inactive), the GI50 (SK-OV-3) was > 100 µM (inactive) and the GI50 (SN12C) was > 100 µM (inactive). The GI50 (SNB-19) was > 100 µM (inactive), the GI50 (SNB-75) was 35.6 µM (inactive) and the GI50 (SR) was 67.1 µM (inactive). The GI50 (SW-620) was > 100 µM (inactive), the GI50 (T47D) was > 100 µM (inactive) and the GI50 (TK-10) was > 100 µM (inactive). The GI50 (U-251) was 82.2 µM (inactive), the GI50 (UACC-257) was > 100 µM (inactive) and the GI50 (UACC-62) was 43.2 µM (inactive). The GI50 (UO-31) was > 100 µM (inactive).
